Data from paper PMC4445981, “The glutamate transport inhibitor DL-Threo-β-Benzyloxyaspartic acid (DL-TBOA) differentially affects SN38- and oxaliplatin-induced death of drug-resistant colorectal cancer cells” (BMC Cancer, 2015).

Assays:
[1] = tested on: retinoblastoma protein phosphorylation on Ser 807/811 (pRb); experiment: pRb (Ser 807/811) level by Western blotting; format: cell-based, human
Procedure: Cells were grown to a confluence of 60-80 % and treated with chemotherapy, siRNA- or plasmid transfection as indicated. Cells were washed once in PBS, lysed in lysis buffer (1 % SDS, 0.1 M Tris pH 7.5, and 1 mM Na3VO4), sonicated, and protein content determined (DC assay, BioRad). Lysates were mixed 2:1with NuPage LDS sample buffer (Invitrogen). SDS-PAGE was carried out in NOVEX chambers with NuPAGE 10 % Bis-Tris gels under reducing and denaturing conditions, using BenchMark protein ladder (Invitrogen), and 15 μg protein per lane. Proteins were transferred to PVDF membranes, which were Ponceau S stained, blocked for 1 h at 37 °C in 5 % nonfat dry milk in TBST (0.01 M Tris/HCl, 0.15 M NaCl, 0.1 % Tween 20, pH 7.4), incubated overnight at 4 °C with primary antibodies diluted in blocking buffer, washed in TBST, incubated with secondary antibodies for 1 h, washed in TBST, and developed using BCIP/NBT (KPL). Bands were scanned and quantified using UN-SCAN-IT (Silk Scientific).
Supplementary file 12885_2015_1405_MOESM5_ESM.tiff: Additional file 5: Figure S5. Effects of DL-TBOA on proliferation after chemotherapy treatment. Parental and drug-resistant HCT116 (A) and LoVo (B) cell lines seeded in 6-well dishes were exposed to SN38 (0.8 μM) or oxaliplatin (20 μM) alone or in combination with 350 μM DL-TBOA as indicated, for 24 h. Equal amounts of protein per lane were separated by SDS-PAGE and the protein levels of phosphorylation of retinoblastoma protein on Ser 807/811 (pRb) were determined by Western blotting. Top: Representative Western blots, with β-actin as loading control. Bottom: Densitometric quantifications based on 3 independent experiments per condition. Data are means with S.E.M. error bars of 3 independent experiments. Two-way ANOVA with Tukey post-test.

[2] = tested on: parental and drug-resistant HCT116 and LoVo cell lines; experiment: MTT viability assay, HCT116 and LoVo cell lines; format: cell-based, human
Procedure: Fig. 2 DL-TBOA augments SN38-induced death in SN38-resistant cells, but protects oxaliplatin-resistant cells from oxaliplatin-induced death. Parental and drug-resistant HCT116 and LoVo cell lines seeded in 96-well dishes were exposed to SN38 (0.1 or 0.8 μM) or oxaliplatin (0.8 or 20 μM), alone or in combination with 70 or 350 μM DL-TBOA as indicated, for 48 h. Viability was assessed by MTT assay. a-b Parental HCT116 cells, (c) SN38 resistant HCT116 cells, (d) Oxaliplatin-resistant HCT116 cells, (e-f) Parental LoVo cells, (g) SN38 resistant LoVo cells, (h) Oxaliplatin-resistant LoVo cells. Data are means with S.E.M. error bars of 3 independent experiments. *) p < 0.05, **) p < 0.01, ***) p < 0.001 compared to the control group without drug or TBOA treatment; #) p < 0.05 compared to controls without TBOA treatment. One-way ANOVA followed by Dunnett post-test
Cells were seeded at appropriate density (LoVo 10,000, and HCT116 5000 cells /100 μl) in growth medium in 96-well plates. Next day, cells were treated with inhibitors and/or chemotherapy in a total volume of 200 μl in growth medium and incubated for 48 h at 37 °C, 5 % CO2. The medium was replaced with 100 μl of 0.5 mg/ml 3-(4,5-dimethylthiazol-2-yl)-2,5-diphenyltetrazolium bromide (MTT) in growth medium. The reaction was stopped 1.5-2.5 h later by addition of 100 μl 20 % SDS in 0.02 M HCl, and incubation overnight to allow complete lysis of cells and formazan crystals. Absorbance was measured in an ELISA plate reader (Thermo Scientific MultiScan FC) at 550 nm. Data were background subtracted and % viability relative to controls calculated.

[3] = tested on: SLC1A1 localization in HCT116 cells; experiment: Immunofluorescence analysis of SLC1A1 subcellular localization; format: cell-based, human; conditions: 48 h
Procedure: Immunofluorescence analysis was carried out essentially as in [47]. Cells grown on glass coverslips were fixed in 2 % paraformaldehyde, washed in TBST, permeabilized for 5 min (0.5 % Triton X-100 in TBST), blocked for 30 min in 5 % BSA in TBST, incubated with SLC1A1 primary antibody in TBST + 1 % BSA overnight at 4 °C, washed in TBST, and with Rhodamine-phalloidin and AlexaFluor488 conjugated secondary antibody (1:600 in TBS + 1 % BSA) for 1 h, followed by washing in TBST, and mounting in N-propyl-galleate mounting medium (2 % w/v in PBS/glycerol). DAPI was added for 3 min following incubation with the secondary antibody. Cells were visualized using the 60X/1.35 NA objective of an Olympus Bx63 epifluorescence microscope. […] Overlays were carried out using Adobe Photoshop software. No other image adjustment was performed.

SLC1A3 = conditions: depending on the system and experimental setup; cited from earlier work

| Structure (SMILES) | effect on cellular level of phospho-Retinoblastoma protein ([1]; DL-TBOA, HCT116 and LoVo cells) | effect on pRb level after oxaliplatin treatment ([1]; all cell types except oxaliplatin-resistant HCT116, 350 μM DL-TBOA + 20 μM oxaliplatin, 24 h, not statistically significant) | effect on pRb level ([1]; control conditions, both parental cell lines, 350 μM DL-TBOA, 24 h, not statistically significant) | effect on SN38-induced loss of viability ([2]; SN38-resistant HCT116 and LoVo cells, concomitant DL-TBOA 70 or 350 μM, 48 h) | effect on oxaliplatin-induced loss of viability ([2]; both parental cell lines, DL-TBOA 70 or 350 μM concomitantly with oxaliplatin, 48 h) | effect on viability of untreated cells ([2]; no chemotherapeutic, DL-TBOA 70 or 350 μM, 48 h, all cell lines (Fig. 2a-h)) | effect on oxaliplatin-induced loss of viability ([2]; oxaliplatin-resistant HCT116 and LoVo cells, DL-TBOA 70 or 350 μM, 48 h) | effect on SN38-induced loss of viability ([2]; parental cell lines, DL-TBOA 70 or 350 μM concomitantly with SN38, 48 h) | effect on SLC1A1 localization ([3]; SN38-resistant HCT116 cells, 350 μM DL-TBOA added to chemotherapeutic treatment) | effect on intracellular SLC1A1 localization ([3]; oxaliplatin-resistant HCT116 cells, control and oxaliplatin-treated, 350 μM DL-TBOA) | effect on SLC1A1 localization ([3]; parental HCT116 cells, 350 μM DL-TBOA alone or with chemotherapeutic agents) | IC50 values in uptake assays (SLC1A3) | viable cells remaining ([2]; parental HCT116 and LoVo, 48 h, 20 μM oxaliplatin (highest dose tested)) | SLC1A1 subcellular localization ([3]; parental HCT116 cells, 0.8 μM SN38 or 20 μM oxaliplatin) |
| --- | --- | --- | --- | --- | --- | --- | --- | --- | --- | --- | --- | --- | --- | --- |
| N[C@H](C(=O)O)[C@H](OCc1ccccc1)C(=O)O (racemic) [TBOA, DL-Threo-β-Benzyloxyaspartic acid] | did not significantly alter | slightly but consistently decreased pRb levels | tended to increase pRb levels | concentration-dependently enhanced SN38-induced loss of viability | counteracted the effect of oxaliplatin on viability | small decrease in viability | reversed oxaliplatin-induced loss of viability | slightly exacerbated the SN38-induced loss of viability | increased the fraction of SLC1A1 fluorescence localized to the perinuclear/nuclear compartment | partially reversed | no detectable effect on SLC1A1 localization | low micromolar range |  |  |
| O=C(O)C(=O)O.[NH-][C@@H]1CCCC[C@H]1[NH-].[Pt+2] [oxaliplatin] |  |  |  |  |  |  |  |  |  |  |  |  | about 20% | marked shift in SLC1A1 localization towards the perinuclear/nuclear region |
